Experimental data: BindingDB's records for doi:10.1021/bi4005182 (The Scripps Research Institute, 2013)

Biological target: Bifunctional purine biosynthesis protein ATIC (Homo sapiens, UniProt P31939)
Test: Enzyme Activity Assays
Protocol: Enzyme activity assays of recombinant hGAR Tfase and recombinant hAICAR Tfase were performed as previously described. Kinetics of the enzyme reactions were monitored for 2 min after reaction initiation.

Chain of Bifunctional purine biosynthesis protein ATIC (P31939 whole entry): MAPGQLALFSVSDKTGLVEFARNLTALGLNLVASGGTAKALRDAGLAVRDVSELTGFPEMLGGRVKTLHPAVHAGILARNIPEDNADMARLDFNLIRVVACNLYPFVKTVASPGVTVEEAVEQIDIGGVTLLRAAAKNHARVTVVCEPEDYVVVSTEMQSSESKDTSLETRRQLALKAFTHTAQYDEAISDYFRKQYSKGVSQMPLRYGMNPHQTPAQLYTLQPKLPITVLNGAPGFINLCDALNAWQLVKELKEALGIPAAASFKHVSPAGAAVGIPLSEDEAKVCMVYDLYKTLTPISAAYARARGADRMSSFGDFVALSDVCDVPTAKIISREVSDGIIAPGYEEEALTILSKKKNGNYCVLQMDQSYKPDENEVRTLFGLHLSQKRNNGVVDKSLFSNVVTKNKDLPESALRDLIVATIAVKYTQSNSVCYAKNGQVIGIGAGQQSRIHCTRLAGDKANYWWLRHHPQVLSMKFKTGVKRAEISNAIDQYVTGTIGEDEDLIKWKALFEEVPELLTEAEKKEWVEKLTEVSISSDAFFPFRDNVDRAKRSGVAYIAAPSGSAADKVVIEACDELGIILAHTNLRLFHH

Compound: Nc1nc2c(c(=O)[nH]1)C[C@@H](CCc1ccc(C(=O)NC(CCC(=O)O)C(=O)O)cc1)CN2 (stereo partly specified) [Lometrexol (3)]
- Ki: > 100 µM
